Measured values reported in patent US10072026B2, “Crystalline form of 3-((1R,3s,5S)-3-((7-((5-methyl-1H-pyrazol-3-yl)amino)-1,6-naphthyridin-5-yl)amino)-8-azabicyclo[3.2.1]octan-8-yl)propanenitrile” (priority 2015, dated 2018).
Read-outs that look alike come from different tables or passages of the source.

Tests used:
[1] = tested on: IL-13 induced STAT6 phosphorylation in BEAS-2B human lung epithelial cells; experiment: AlphaScreen cellular JAK potency assay, BEAS-2B; conditions: for IC50: Homo sapiens, BEAS-2B, read-out: BEAS2B pIC50 (converted); for BEAS2B pIC50: IL-13 induced STAT6 phosphorylation, BEAS-2B cells
[2] = tested on: IL-4 induced STAT6 phosphorylation in THP-1 human monocytic cells; experiment: Cellular JAK potency assay, THP-1
[3] = molecular target: JAK2 (Homo sapiens (Human), UniProt O60674); experiment: LanthaScreen JAK biochemical assay (JAK2)
[4] = molecular target: JAK1 (Homo sapiens (Human), UniProt P23458); experiment: LanthaScreen JAK biochemical assay (JAK1)
[5] = Homo sapiens, THP-1, read-out: THP-1 IL4 pIC50 (converted)
[6] = IL-4 induced STAT6 phosphorylation, THP-1 cells
[7] = THP-1 cells, IL-4 induced STAT6 phosphorylation
[8] = read-out: JAK 2 (pKi) (converted)
[9] = read-out: JAK 1 (pKi) (converted)

JAK2, sequence (O60674 whole entry): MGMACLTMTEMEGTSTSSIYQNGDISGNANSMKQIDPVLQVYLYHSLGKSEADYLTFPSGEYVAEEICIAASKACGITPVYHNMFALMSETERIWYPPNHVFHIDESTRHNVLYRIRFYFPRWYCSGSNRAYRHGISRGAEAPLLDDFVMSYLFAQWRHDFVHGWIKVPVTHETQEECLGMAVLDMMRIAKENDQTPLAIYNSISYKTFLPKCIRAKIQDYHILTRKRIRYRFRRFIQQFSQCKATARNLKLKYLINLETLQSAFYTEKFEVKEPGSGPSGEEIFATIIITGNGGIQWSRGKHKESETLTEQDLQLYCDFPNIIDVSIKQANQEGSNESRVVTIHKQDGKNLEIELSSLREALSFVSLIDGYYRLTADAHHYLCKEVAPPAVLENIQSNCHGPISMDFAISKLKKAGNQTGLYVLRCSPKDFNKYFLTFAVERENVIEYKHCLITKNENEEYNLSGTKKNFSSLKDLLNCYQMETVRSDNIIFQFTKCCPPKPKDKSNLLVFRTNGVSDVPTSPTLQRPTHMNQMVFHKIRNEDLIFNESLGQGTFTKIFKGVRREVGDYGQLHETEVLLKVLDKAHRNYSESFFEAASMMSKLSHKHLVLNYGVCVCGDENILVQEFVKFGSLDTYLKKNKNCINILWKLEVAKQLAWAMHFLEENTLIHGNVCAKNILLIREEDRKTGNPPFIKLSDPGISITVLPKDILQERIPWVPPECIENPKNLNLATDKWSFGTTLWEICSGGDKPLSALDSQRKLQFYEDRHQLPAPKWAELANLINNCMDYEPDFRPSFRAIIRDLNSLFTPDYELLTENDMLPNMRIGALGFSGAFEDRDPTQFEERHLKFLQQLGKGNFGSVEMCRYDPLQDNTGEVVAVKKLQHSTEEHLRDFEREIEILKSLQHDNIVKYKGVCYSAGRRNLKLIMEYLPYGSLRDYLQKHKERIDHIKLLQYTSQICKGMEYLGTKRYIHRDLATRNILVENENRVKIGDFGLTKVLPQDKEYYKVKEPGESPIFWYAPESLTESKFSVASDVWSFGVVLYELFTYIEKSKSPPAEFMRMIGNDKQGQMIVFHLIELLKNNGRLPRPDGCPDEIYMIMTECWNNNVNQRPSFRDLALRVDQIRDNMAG
JAK1, sequence (P23458 whole entry): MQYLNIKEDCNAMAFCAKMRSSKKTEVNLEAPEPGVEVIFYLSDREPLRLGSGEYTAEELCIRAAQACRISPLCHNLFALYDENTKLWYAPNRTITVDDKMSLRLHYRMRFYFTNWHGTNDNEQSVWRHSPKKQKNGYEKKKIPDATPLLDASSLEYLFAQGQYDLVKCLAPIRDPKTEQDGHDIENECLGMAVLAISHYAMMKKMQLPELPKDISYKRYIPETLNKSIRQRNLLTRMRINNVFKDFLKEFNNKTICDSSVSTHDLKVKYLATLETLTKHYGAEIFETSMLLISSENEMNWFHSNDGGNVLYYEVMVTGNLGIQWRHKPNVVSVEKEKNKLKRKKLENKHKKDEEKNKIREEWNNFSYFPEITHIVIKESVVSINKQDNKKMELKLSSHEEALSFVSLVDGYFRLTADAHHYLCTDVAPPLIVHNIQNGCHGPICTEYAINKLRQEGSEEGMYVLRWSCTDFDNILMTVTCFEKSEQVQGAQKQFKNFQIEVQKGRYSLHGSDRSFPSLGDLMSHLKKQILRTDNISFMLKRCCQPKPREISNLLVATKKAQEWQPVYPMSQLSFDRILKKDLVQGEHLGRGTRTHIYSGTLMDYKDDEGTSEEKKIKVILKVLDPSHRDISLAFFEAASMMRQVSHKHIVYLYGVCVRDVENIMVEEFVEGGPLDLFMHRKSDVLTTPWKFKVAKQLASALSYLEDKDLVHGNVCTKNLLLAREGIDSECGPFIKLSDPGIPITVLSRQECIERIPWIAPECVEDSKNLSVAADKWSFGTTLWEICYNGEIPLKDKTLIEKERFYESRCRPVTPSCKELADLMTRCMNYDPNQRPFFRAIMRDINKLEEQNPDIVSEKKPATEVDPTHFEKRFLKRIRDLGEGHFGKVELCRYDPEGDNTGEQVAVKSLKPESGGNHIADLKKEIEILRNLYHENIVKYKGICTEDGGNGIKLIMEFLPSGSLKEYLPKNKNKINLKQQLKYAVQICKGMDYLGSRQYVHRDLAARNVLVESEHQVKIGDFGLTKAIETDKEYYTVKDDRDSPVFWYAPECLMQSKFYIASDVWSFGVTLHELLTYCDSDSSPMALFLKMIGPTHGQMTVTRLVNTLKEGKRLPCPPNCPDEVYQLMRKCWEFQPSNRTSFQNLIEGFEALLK

SMILES | THP-1 IL4 pIC50 [2, 6] | JAK 2 (pKi) [3] | JAK 1 (pKi) [4] | other results
CCS(=O)(=O)N1[C@@H]2CC[C@H]1C[C@H](Nc1nc(Nc3cc(C)[nH]n3)cc3nc(CN4CCOCC4)ccc13)C2 [Example 5-16] |  |  |  | IC50 [1]: 31.6 to 200 nM; IC50 [2, 5]: 31.6 to 200 nM
CCS(=O)(=O)N1[C@@H]2CCC[C@H]1C[C@H](Nc1nc(Nc3cc(C)[nH]n3)cc3ncccc13)C2 [Example 10, N^5-((1R,3s,5S)-9-(ethylsulfonyl)-9-azabicyclo[3.3.1]nonan-3-yl)-N^7-(5-methyl-1H-pyrazol-3-yl)-1,6-naphthyridine-5,7-diamine] |  |  |  | IC50 [1]: < 31.6 nM; IC50 [2, 5]: < 31.6 nM
C=CCOC(=O)N1[C@@H]2CC[C@H]1C[C@H](Nc1nc(Nc3cc(C)[nH]n3)cc3nc(CN4CCOCC4)ccc13)C2 [Example 5-17] | B (B represents a pEC50 value between 6.7 and 7.5 (EC50 between 200 nM and 32 nM)) |  |  | BEAS2B pIC50 [1]: A (A represents a pEC50 value≥7.5 (EC50≤32 nM))
Cc1cc(Nc2cc3ncccc3c(N[C@@H]3C[C@H]4CC[C@@H](C3)N4CC(=O)OC(C)(C)C)n2)n[nH]1 [Example 1-5] | B (B represents a pEC50 value between 6.7 and 7.5 (EC50 between 200 nM and 32 nM)) | B (B represents a pKi value between 9 and 10 (Ki between 1 nM and 0.1 nM)) | B (B represents a pKi value between 9 and 10 (Ki between 1 nM and 0.1 nM)) | 
Cc1cc(Nc2cc3ncccc3c(N[C@@H]3C[C@H]4CC[C@@H](C3)N4CC(=O)OC(C)C)n2)n[nH]1 [Example 1-4] | B (B represents a pEC50 value between 6.7 and 7.5 (EC50 between 200 nM and 32 nM)) | B (B represents a pKi value between 9 and 10 (Ki between 1 nM and 0.1 nM)) | B (B represents a pKi value between 9 and 10 (Ki between 1 nM and 0.1 nM)) | 
COC(=O)c1cnc2cc(Nc3cc(C)[nH]n3)nc(N[C@@H]3C[C@H]4CC[C@@H](C3)N4C[C@H]3CCC(=O)O3)c2c1 [Example 6-46] |  | B (B represents a pKi value between 9 and 10 (Ki between 1 nM and 0.1 nM)) | B (B represents a pKi value between 9 and 10 (Ki between 1 nM and 0.1 nM)) | THP-1 IL4 pIC50 [2, 7]: C (C represents a pEC50 value<6.7 (EC50>200 nM))
Cc1cc(Nc2cc3ncccc3c(N[C@@H]3C[C@H]4CCC[C@@H](C3)N4C[C@H]3CCC(=O)O3)n2)n[nH]1 [Example 1-57] | B (B represents a pEC50 value between 6.7 and 7.5 (EC50 between 200 nM and 32 nM)) | B (B represents a pKi value between 9 and 10 (Ki between 1 nM and 0.1 nM)) | B (B represents a pKi value between 9 and 10 (Ki between 1 nM and 0.1 nM)) | 
Cc1cc(Nc2cc3ncc(S(C)(=O)=O)cc3c(N[C@@H]3C[C@H]4CC[C@@H](C3)N4CCF)n2)n[nH]1 [Example 6-54] |  | B (B represents a pKi value between 9 and 10 (Ki between 1 nM and 0.1 nM)) | B (B represents a pKi value between 9 and 10 (Ki between 1 nM and 0.1 nM)) | THP-1 IL4 pIC50 [2, 7]: C (C represents a pEC50 value<6.7 (EC50>200 nM))
Cc1cc(Nc2cc3nc(CN4CCC(F)(F)CC4)ccc3c(N[C@@H]3C[C@H]4CC[C@@H](C3)N4S(=O)(=O)c3cncc(F)c3)n2)n[nH]1 [Example 5-31] |  |  |  | Ki [3, 8]: 0.1 to 1 nM; Ki [4]: 0.1 to 1 nM; IC50 [2, 5]: 31.6 to 200 nM
Cc1cc(Nc2cc3ncccc3c(N[C@@H]3C[C@H]4CC[C@@H](C3)N4C(=O)Cc3ccccc3)n2)n[nH]1 [Example 2-11] | B (B represents a pEC50 value between 6.7 and 7.5 (EC50 between 200 nM and 32 nM)) | B (B represents a pKi value between 9 and 10 (Ki between 1 nM and 0.1 nM)) | B (B represents a pKi value between 9 and 10 (Ki between 1 nM and 0.1 nM)) | 
C=CCOC(=O)N1[C@@H]2CC[C@H]1C[C@H](Nc1nc(Nc3cc(C)[nH]n3)cc3ncccc13)C2 [Example 3-4] | A (A represents a pEC50 value≥7.5 (EC50≤32 nM)) | B (B represents a pKi value between 9 and 10 (Ki between 1 nM and 0.1 nM)) | B (B represents a pKi value between 9 and 10 (Ki between 1 nM and 0.1 nM)) | 
Cc1cc(Nc2cc3ncccc3c(N[C@@H]3C[C@H]4CC[C@@H](C3)N4CCC(F)(F)F)n2)n[nH]1 [Example 1-10] | C (C represents a pEC50 value<6.7 (EC50>200 nM)) | B (B represents a pKi value between 9 and 10 (Ki between 1 nM and 0.1 nM)) | B (B represents a pKi value between 9 and 10 (Ki between 1 nM and 0.1 nM)) | 
COC(=O)c1cnc2cc(Nc3cc(C)[nH]n3)nc(N[C@@H]3C[C@H]4CC[C@@H](C3)N4CCC(F)(F)F)c2c1 [Example 6-45] |  | B (B represents a pKi value between 9 and 10 (Ki between 1 nM and 0.1 nM)) | B (B represents a pKi value between 9 and 10 (Ki between 1 nM and 0.1 nM)) | THP-1 IL4 pIC50 [2, 7]: B (B represents a pEC50 value between 6.7 and 7.5 (EC50 between 200 nM and 32 nM))
Cc1cc(Nc2cc3ncccc3c(N[C@@H]3C[C@H]4CCC[C@@H](C3)N4Cc3ccc(C#N)nc3)n2)n[nH]1 [Example 1-54] |  |  |  | BEAS2B pIC50 [1]: B (B represents a pEC50 value between 6.7 and 7.5 (EC50 between 200 nM and 32 nM))
C=CCOC(=O)N1[C@@H]2CCC[C@H]1C[C@H](Nc1nc(Nc3cc(C)[nH]n3)cc3ncccc13)C2 [Example 3-8] | A (A represents a pEC50 value≥7.5 (EC50≤32 nM)) | B (B represents a pKi value between 9 and 10 (Ki between 1 nM and 0.1 nM)) | B (B represents a pKi value between 9 and 10 (Ki between 1 nM and 0.1 nM)) | 
CNC(=O)CN1[C@@H]2CC[C@H]1C[C@H](Nc1nc(Nc3cc(C)[nH]n3)cc3ncccc13)C2 [Example 1-7] | C (C represents a pEC50 value<6.7 (EC50>200 nM)) | B (B represents a pKi value between 9 and 10 (Ki between 1 nM and 0.1 nM)) | B (B represents a pKi value between 9 and 10 (Ki between 1 nM and 0.1 nM)) | 
Cc1cc(Nc2cc3ncccc3c(N[C@@H]3C[C@H]4CC[C@@H](C3)N4CC3CCOCC3)n2)n[nH]1 [Example 1-20] | B (B represents a pEC50 value between 6.7 and 7.5 (EC50 between 200 nM and 32 nM)) | B (B represents a pKi value between 9 and 10 (Ki between 1 nM and 0.1 nM)) | B (B represents a pKi value between 9 and 10 (Ki between 1 nM and 0.1 nM)) | 
Cc1ccc(S(=O)(=O)N2[C@@H]3CCC[C@H]2C[C@H](Nc2nc(Nc4cc(C)[nH]n4)cc4ncccc24)C3)cn1 [Example 4-25] | A (A represents a pEC50 value≥7.5 (EC50≤32 nM)) | B (B represents a pKi value between 9 and 10 (Ki between 1 nM and 0.1 nM)) | B (B represents a pKi value between 9 and 10 (Ki between 1 nM and 0.1 nM)) | 
Cc1cc(Nc2cc3ncc(S(C)(=O)=O)cc3c(N[C@@H]3C[C@H]4CC[C@@H](C3)N4CCC#N)n2)n[nH]1 [Example 6-50] |  | A (A represents a pKi value≥10 (Ki≤0.1 nM)) | A (A represents a pKi value≥10 (Ki≤0.1 nM)) | THP-1 IL4 pIC50 [2, 7]: C (C represents a pEC50 value<6.7 (EC50>200 nM))
Cc1cc(Nc2cc3ncccc3c(N[C@@H]3C[C@H]4CCC[C@@H](C3)N4C(=O)OCC(C)C)n2)n[nH]1 [Example 3-7] | B (B represents a pEC50 value between 6.7 and 7.5 (EC50 between 200 nM and 32 nM)) | B (B represents a pKi value between 9 and 10 (Ki between 1 nM and 0.1 nM)) | B (B represents a pKi value between 9 and 10 (Ki between 1 nM and 0.1 nM)) | 
Cc1cc(Nc2cc3ncccc3c(N[C@@H]3C[C@H]4CC[C@@H](C3)N4Cc3cccnc3)n2)n[nH]1 [Example 1-16] | B (B represents a pEC50 value between 6.7 and 7.5 (EC50 between 200 nM and 32 nM)) | B (B represents a pKi value between 9 and 10 (Ki between 1 nM and 0.1 nM)) | B (B represents a pKi value between 9 and 10 (Ki between 1 nM and 0.1 nM)) | 
Cc1cc(Nc2cc3ncccc3c(N[C@@H]3C[C@H]4CCC[C@@H](C3)N4S(=O)(=O)Cc3ccccc3)n2)n[nH]1 [Example 4-24] | B (B represents a pEC50 value between 6.7 and 7.5 (EC50 between 200 nM and 32 nM)) | B (B represents a pKi value between 9 and 10 (Ki between 1 nM and 0.1 nM)) | B (B represents a pKi value between 9 and 10 (Ki between 1 nM and 0.1 nM)) | 
COC(=O)c1cnc2cc(Nc3cc(C)[nH]n3)nc(N[C@@H]3C[C@H]4CC[C@@H](C3)N4CCF)c2c1 [Example 6-43] |  | B (B represents a pKi value between 9 and 10 (Ki between 1 nM and 0.1 nM)) | B (B represents a pKi value between 9 and 10 (Ki between 1 nM and 0.1 nM)) | THP-1 IL4 pIC50 [2, 7]: B (B represents a pEC50 value between 6.7 and 7.5 (EC50 between 200 nM and 32 nM))
Cc1cc(Nc2cc3ncccc3c(N[C@@H]3C[C@H]4CC[C@@H](C3)N4C(=O)c3cccnc3)n2)n[nH]1 [Example 2-14] |  |  |  | Ki [3, 8]: 0.1 to 1 nM; Ki [4]: 0.1 to 1 nM; IC50 [2, 5]: > 200 nM
Cc1cc(Nc2cc3ncccc3c(N[C@@H]3C[C@H]4CC[C@@H](C3)N4S(=O)(=O)C3CCCC3)n2)n[nH]1 [Example 4-5] |  |  |  | Ki [3]: 0.1 to 1 nM; Ki [4, 9]: 0.1 to 1 nM; IC50 [2, 5]: < 31.6 nM
CCOC(=O)N1[C@@H]2CC[C@H]1C[C@H](Nc1nc(Nc3cc(C)[nH]n3)cc3ncccc13)C2 [Example 3-1] |  |  |  | Ki [3, 8]: 0.1 to 1 nM; Ki [4, 9]: 0.1 to 1 nM; IC50 [2, 5]: < 31.6 nM
Cc1cc(Nc2cc3nc(CN4CCN(C)CC4)ccc3c(N[C@@H]3C[C@H]4CC[C@@H](C3)N4S(=O)(=O)c3cncc(F)c3)n2)n[nH]1 [Example 5-40] |  |  |  | Ki [3, 8]: 0.1 to 1 nM; Ki [4, 9]: 0.1 to 1 nM; IC50 [2, 5]: 31.6 to 200 nM
CCS(=O)(=O)N1[C@@H]2CC[C@H]1C[C@H](Nc1nc(Nc3cc(C)[nH]n3)c(F)c3ncccc13)C2 [Example 8-3] |  | B (B represents a pKi value between 9 and 10 (Ki between 1 nM and 0.1 nM)) | B (B represents a pKi value between 9 and 10 (Ki between 1 nM and 0.1 nM)) | THP-1 IL4 pIC50 [2, 7]: A (A represents a pEC50 value≥7.5 (EC50≤32 nM))
